Measurements taken from publication PMC5970223, “Multiplexed profiling of GPCR activities by combining split TEV assays and EXT-based barcoded readouts” (Scientific Reports, 2018).
Where a name gives a salt, the structure may show the parent alone. Read-outs that look alike come from different tables or passages of the source.

Tests used:
ADRA2B = tested on: ADRA2B; design: method as in PubChem, Supplementary refs 1, 6, 17; details: ref PubChem, Supplementary refs 1, 6, 17; cited from earlier work
serotonin receptor HTR2A [1] = target: T1, serotonin receptor HTR2A (Homo sapiens, UniProt P28223); test: multiplexed GPCRprofiler assay in U2OS cells; type: cell-based; details: for agonistic effect on HTR2A (drug alone): drug only for 6 h, subtle = less than 2-fold change, three consecutive increases
Procedure: (§1) Two hours after transfection, all cell populations were pooled, mixed, and evenly divided into fractions for plating onto assay dishes (Fig. 2a). The cells were cultured and stimulated under identical conditions for agonist or antagonist assays as initially described for GPCR split TEV assays (Supplementary Fig. S1a,b).
(§2) After cell lysis, RNA from each sample was isolated and converted into cDNA by reverse transcription. […] This permits the mixing of all samples and sequencing of all pooled samples using a single sequencing run (Fig. 2b). The sample barcodes enable tracing experimental conditions, whereas the read counts per EXTs serve as quantitative measurements for the corresponding GPCRs. […] From the normalized data the fold changes of receptor activities were finally calculated.
(§3) In addition to the stimulation with the single compounds, a compound-mixture (mix) of all agonists was tested. The first set of experiments were carried out in the human osteosarcoma cell line U2OS. We normalized the raw sequencing data to total read numbers of sample codes, followed by averaging reads of internal and external calibrator EXTs as described above (Supplementary Fig. S4).
(§4) Next, we applied the multiplexed GPCRprofiler to measure the effects of GPCR targeting drugs on receptor activity. […] In addition, binding affinities to α-adrenergic receptors and the histamine receptor HRH1 were described for paliperidone using biochemical assays[38]–[40]. […] To address any changes in GPCR activities caused by the selected drugs, receptors were stimulated for 6 h applying two different parameters. First, to monitor agonistic effects, GPCRs were treated with the drugs only (Supplementary Fig. S1a). Second, to measure antagonistic effects, GPCRs were treated both with the drugs and the corresponding agonist (Supplementary Fig. S1b). This experimental design therefore allows to identify potential antagonistic effects of agonists and vice versa. For a profiling experiment, drugs were applied at increasing concentrations. […] Alternatively, a drug-induced inhibition of agonist-mediated GPCR activation specifies the drug as antagonist.
Cells were resuspended in culture medium without antibiotics at a density of 1.5 × 10^6 cells/ml (U2OS) or 3 × 10^6 cells/ml (PC12). […] Transfection-mixes were added to cell suspensions and incubated for 2 h at 37 °C without shaking. Suspensions were centrifuged for 5 min at 900 rpm and resuspended in culture medium to remove transfection reagents.

HTR2A [2] = details: GF62 cells; cited from earlier work
HRH1 = details: cited from earlier work; for drug effect, IUPHAR: ref IUPHAR, Supplementary refs 2,3, 7, 10
HTR2A [3] = details: cited from earlier work; for drug effect, PubChem: ref PubChem, Supplementary refs 1, 4–6, 8,9
ADRA2C = tested on: ADRA2C; design: method as in PubChem, Supplementary refs 1, 17; details: ref PubChem, Supplementary refs 1, 17; cited from earlier work
histamine receptor HRH1 = tested on: T2, histamine receptor HRH1; test: multiplexed GPCRprofiler assay in U2OS cells; type: cell-based, human; details: for drug-induced effect, GPCRprofiler: Supplementary Table S4, HRH1; for antagonistic effect on HRH1: U2OS cells, drug 1 h before agonist-mix (1 µM each)
T2 construct: ORFs of GPCRs were PCR amplified; expressed in transfected cells; host or cells: U2OS
Procedure: as §1, §2, §4
(§5) Cells were resuspended in culture medium without antibiotics at a density of 1.5 × 10^6 cells/ml (U2OS) or 3 × 10^6 cells/ml (PC12). […] Transfection-mixes were added to cell suspensions and incubated for 2 h at 37 °C without shaking. Suspensions were centrifuged for 5 min at 900 rpm and resuspended in culture medium to remove transfection reagents. All transfection samples were combined within one pool and plated on multiple wells of 6-well plates and incubated for 24 h at 37 °C. Afterwards, cells were starved for 17–18 h and then treated with compounds for 6 h in duplicates. After compound treatment cells were washed with PBS and 500 µl RLT lysis buffer was applied for cell lysis. Lysates were processed for sequencing as described below.
(§6) RNA was additional in solution treated with Turbo DNase (Ambion) for 30 min at 37 °C and repurified over an RNeasy column. First-strand cDNA synthesis was performed with 1 µg total RNA using superscript III reverse transcriptase (Invitrogen) and 120 pmol of a random nanomer primer. […] On order to differentiate different samples 13mer barcodes were introduced between 5′ Ion adapter and target sequence. All processed samples of an experiment were combined within one pool and purified using PCR clean-up kit (Macherey-Nagel).
(§7) Raw sequencing data analyses were done by using BLAST algorithm and in-house developed R scripts.

serotonin receptor HTR1A = tested on: T3, serotonin receptor HTR1A; test: multiplexed GPCRprofiler assay in U2OS cells; type: cell-based, human; details: multiplexed GPCR assay
T3 construct: ORFs of GPCRs were PCR amplified; HA-Flag signal peptide (N); expressed in transfected cells; host or cells: U2OS
Procedure: as §1, §2, §4, §5, §6, §7

[4] = tested on: T4, α-adrenergic receptor ADRA2C; test: multiplexed GPCRprofiler assay in U2OS cells; type: cell-based, human; details: for drug-induced effect, GPCRprofiler: Supplementary Table S4, ADRA2C; for antagonistic effect on ADRA2C: U2OS cells, drug 1 h before agonist-mix (1 µM each)
T4 construct: ORFs of GPCRs were PCR amplified; expressed in transfected cells; host or cells: U2OS
Procedure: as §1, §2, §4, §5, §6, §7

serotonin receptor HTR5A = details: U2OS cells (not in PC12 cells)
Procedure: as §1, §2, §3, §5
(§8) RNA was additional in solution treated with Turbo DNase (Ambion) for 30 min at 37 °C and repurified over an RNeasy column. […]

[5] = tested on: dopamine and the adrenergic receptors; details: U2OS cells, agonist 100 pM to 100 µM
Procedure: as §1, §2, §3, §5, §8

serotonin receptor HTR2A [6] = target: T1, serotonin receptor HTR2A; details: PC12 cells
Procedure: as §1, §2
as §5, with “After compound treatment cells were washed with PBS and 500 µl RLT lysis buffer was applied for cell lysis. Lysates were processed for sequencing as described below.” left out

DRD2 = details: ref PubChem, Supplementary refs 1, 4,5, 12–14; cited from earlier work
dopamine receptor DRD2 [7] = target: T5, dopamine receptor DRD2 (Homo sapiens, UniProt P14416); test: multiplexed GPCRprofiler assay in U2OS cells; type: cell-based
dopamine receptor DRD2 [8] = target: T5, dopamine receptor DRD2; test: standard single luciferase GPCR split TEV assay; type: cell-based; details: validation (Fig. 4e), read-out: IC50 of DRD2 receptor inhibition
Description: (§9) GPCR split TEV assays allow monitoring ligand-dependent GPCR activities using the stimulation-dependent interaction of β-arrestin2 and a candidate GPCR. […] To do this, the NTEV fragment and the artificial transcription factor GAL4-VP16 (GV) were fused to the C-terminal end of a candidate GPCR, separated by a TEV cleavage site (tevS) (Fig. 1a,b). To improve the stability of the interaction between a given GPCR and the arrestin, a short sequence from the C-terminal end of the human arginine vasopressin receptor 2 (AVPR2) (abbreviated V2R) was introduced between a candidate GPCR and NTEV[17],[27]. V2R contains multiple phosphorylation sites for GRKs. These sites provide, when phosphorylated, enhanced binding of β-arrestin.
For luciferase assays cells were plated on 96-well white plates at 4 × 10^4 cells/well (PC12) one day before the experiment. The assays were performed with 6 wells as replicates per condition. […] Plasmids and lipofectamine 2000 transfection reagent (Invitrogen) were diluted in opti-MEM (Gibco) and incubated for 20 min at room temperature. Medium was removed from cells, the transfection-mix was added and the plates incubated for 2 h at 37 °C, followed by the adding of double-volume of culture medium to dilute transfection reagents. […]

[9] = tested on: T6, α-adrenergic receptor ADRA2B; test: multiplexed GPCRprofiler assay in U2OS cells; type: cell-based, human
T6 construct: ORFs of GPCRs were PCR amplified; expressed in transfected cells; host or cells: U2OS (multiplexed assays)
Procedure: as §1, §2, §4, §5, §6, §7

HTR2A serotonin receptor = HTR2A serotonin receptor (Homo sapiens, UniProt P28223); test: single GPCR split TEV assay, luciferase readout (β-arrestin2 recruitment); type: cell-based; details: standard single luciferase GPCR split TEV assay, validation (Fig. 4f); read-out: IC50 of HTR2A receptor inhibition
Description: as §9
For these assays, cells were transiently transfected with GPCR split TEV components and reporters, which were allowed to express for 20 h. […] For antagonistic assays, compounds were added 1 h before agonist to ensure proper incubation (Supplementary Fig. S1b). For clarity, varying experimental conditions, such as plate formats, for applied assay formats are summarized in Supplementary Table S3.
For luciferase assays cells were plated on 96-well white plates at 4 × 10^4 cells/well (PC12) one day before the experiment. The assays were performed with 6 wells as replicates per condition. […]

[10] = U2OS cells, drug 1 h before agonist-mix (1 µM each)

T1 sequence (P28223 81-471 limits assumed): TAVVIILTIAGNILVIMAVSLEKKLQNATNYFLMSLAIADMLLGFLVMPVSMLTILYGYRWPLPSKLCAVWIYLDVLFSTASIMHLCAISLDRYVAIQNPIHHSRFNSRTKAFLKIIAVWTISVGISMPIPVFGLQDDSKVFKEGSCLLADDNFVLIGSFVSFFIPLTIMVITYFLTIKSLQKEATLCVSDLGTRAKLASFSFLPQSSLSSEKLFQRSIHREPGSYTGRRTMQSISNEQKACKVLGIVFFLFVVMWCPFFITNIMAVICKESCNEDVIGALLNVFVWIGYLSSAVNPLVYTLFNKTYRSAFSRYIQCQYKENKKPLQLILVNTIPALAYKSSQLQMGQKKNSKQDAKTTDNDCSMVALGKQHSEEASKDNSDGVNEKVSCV
T5 sequence (P14416 1-414 isoform P14416-2): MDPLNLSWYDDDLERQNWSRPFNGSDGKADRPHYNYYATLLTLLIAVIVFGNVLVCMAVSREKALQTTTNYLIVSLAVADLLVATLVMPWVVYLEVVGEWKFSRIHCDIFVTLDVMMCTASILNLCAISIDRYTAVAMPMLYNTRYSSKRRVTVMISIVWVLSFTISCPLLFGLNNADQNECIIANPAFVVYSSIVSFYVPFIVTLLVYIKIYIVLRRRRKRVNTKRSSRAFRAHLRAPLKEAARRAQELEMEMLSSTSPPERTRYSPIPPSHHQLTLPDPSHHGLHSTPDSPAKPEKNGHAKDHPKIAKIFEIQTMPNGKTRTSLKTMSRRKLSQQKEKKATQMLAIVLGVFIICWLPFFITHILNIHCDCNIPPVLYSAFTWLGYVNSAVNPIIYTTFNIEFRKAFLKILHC
Chain of HTR2A serotonin receptor (P28223 81-471 limits assumed): as the sequence (P28223 81-471 limits assumed) above

O=C1CCc2ccc(OCCCCN3CCN(c4cccc(Cl)c4Cl)CC3)cc2N1 [Aripiprazole]
drug effect, PubChem (ADRA2B): Antagonist | agonistic effect on HTR2A (drug alone) (serotonin receptor HTR2A [1]; U2OS cells): concentration-dependent agonistic effect | agonistic effect on HTR2A (drug alone) (serotonin receptor HTR2A [1]; U2OS cells, listed as aripiprazole): subtle agonistic effects | effect on HTR2A reported in the literature (HTR2A [2]): weak partial agonistic effect | drug effect, IUPHAR (HRH1): Antagonist | drug effect, PubChem (HRH1; ref PubChem, Supplementary refs 1, 4–6, 17): Antagonist | drug effect, PubChem (HTR2A [3]): Antagonist | drug effect, PubChem (ADRA2C): Antagonist | drug-induced effect, GPCRprofiler (histamine receptor HRH1): Antagonist | antagonistic effect on HRH1 (histamine receptor HRH1): inhibited | partial agonism on HTR1A (serotonin receptor HTR1A): not detected | drug-induced effect, GPCRprofiler [4]: Antagonist | antagonistic effect on ADRA2C [4]: inhibited

NCCc1ccc(O)c(O)c1 [Dopamine, Dopamine hydrochloride]
activation of HTR2A by non-cognate agonist (serotonin receptor HTR2A [1]; U2OS cells): activation | activation of HTR5A by non-cognate agonist (serotonin receptor HTR5A): activated by dopamine in U2OS cells only | signals of both receptor subfamilies (dopamine and adrenergic) upon stimulation [5]: elevated signals | activation of HTR2A by non-cognate agonist (serotonin receptor HTR2A [6]): activation

Cc1nc2n(c(=O)c1CCN1CCC(c3noc4cc(F)ccc34)CC1)CCCC2O (stereo not shown) [Paliperidone]
drug effect, PubChem (DRD2): Antagonist | drug effect, PubChem (ADRA2B): Antagonist | drug-induced effect, GPCRprofiler (serotonin receptor HTR2A [1]; Supplementary Table S4, HTR2A): Antagonist | antagonistic effect on HTR2A (serotonin receptor HTR2A [1]; [10]): dose-dependent inhibition of receptor activity | drug effect, IUPHAR (HRH1): Antagonist | drug effect, IUPHAR (HTR2A [3]; ref IUPHAR, Supplementary refs 2,3, 7, 10,11): Antagonist | drug effect, PubChem (HTR2A [3]): Antagonist | drug-induced effect, GPCRprofiler (dopamine receptor DRD2 [7]; Supplementary Table S4, DRD2): Antagonist | antagonistic effect on DRD2 (dopamine receptor DRD2 [7]; [10]): dose-dependent inhibition of receptor activity | IC50 (dopamine receptor DRD2 [8]): 188 nM | drug-induced effect, GPCRprofiler ([9]; Supplementary Table S4, ADRA2B): Antagonist | antagonistic effect on ADRA2B [9, 10]: dose-dependent inhibition of receptor activity | drug-induced effect, GPCRprofiler (histamine receptor HRH1): Antagonist | antagonistic effect on HRH1 (histamine receptor HRH1): dose-dependent inhibition of receptor activity | drug-induced effect, GPCRprofiler [4]: Antagonist | antagonistic effect on ADRA2C [4]: dose-dependent inhibition of receptor activity | IC50 (HTR2A serotonin receptor): 3.65 nM
